Assay results published in ChEMBL document CHEMBL1152119, “4-(3-furyl)-2-(4-methylpiperazino)pyrimidines: Potent 5-HT2A receptor antagonists” (Bioorg Med Chem Lett, 1997).
Activity calls are given as the source filed them. The calls are words filed in the database; no cut-off is given here.

Experiments:
[1] = biological target: 5-hydroxytryptamine receptor 2A (Rattus norvegicus, UniProt P14842); test: Displacement of [3H]ketanserin from 5-hydroxytryptamine 2A receptor of rat brain cortex
[2] = biological target: T1, 5-hydroxytryptamine receptor 1A (Rattus norvegicus, UniProt P19327); test: Displacement of [3H]8-OH-DPAT binding to 5-hydroxytryptamine 1A receptor of rat brain hippocampus; type: tissue-based
T1 sequence (P19327 whole entry): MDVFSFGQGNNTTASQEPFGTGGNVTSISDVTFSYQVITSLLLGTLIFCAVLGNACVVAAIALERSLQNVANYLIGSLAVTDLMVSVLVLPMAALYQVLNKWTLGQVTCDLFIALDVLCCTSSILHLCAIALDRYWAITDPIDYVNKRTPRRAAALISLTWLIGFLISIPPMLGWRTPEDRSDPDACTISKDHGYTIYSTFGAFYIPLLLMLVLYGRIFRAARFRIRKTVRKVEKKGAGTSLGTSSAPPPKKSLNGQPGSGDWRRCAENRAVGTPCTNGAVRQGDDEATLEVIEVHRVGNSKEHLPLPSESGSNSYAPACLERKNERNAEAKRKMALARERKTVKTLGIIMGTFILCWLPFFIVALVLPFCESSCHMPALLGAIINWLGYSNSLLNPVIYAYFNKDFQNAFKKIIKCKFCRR

Rattus norvegicus [3] = test: Blocking of discriminative property stimulated by DOI in rats at 10 mg/kg dose, activity expressed as response/min(+/-DOI 0.35 mg/kg administered to animals pretreated with compound); type: functional
Rattus norvegicus [4] = test: Blocking of discriminative property stimulated by DOI in rats at 5 mg/kg dose, activity expressed as response/min(+/-DOI 0.35 mg/kg administered to animals pretreated with compound); type: functional
Rattus norvegicus [5] = test: Percent activity for blocking of discriminative property stimulated by (+/-) DOI in rats at 10 mg/kg(+/-DOI 0.35 mg/kg administered to animals pretreated with compound); type: functional
Rattus norvegicus [6] = test: Number of responding rats/number of rats to receive the compound at a dose of 10mg/kg, +/-DOI 0.35 mg/kg was administered intraperitoneally 60 min before test; 6/6; type: functional, organism-based; set-up: dose 0.35 mg/kg
Rattus norvegicus [7] = test: Number of responding rats/number of rats to receive the compound at a dose of 5 mg/kg, +/-DOI 0.35 mg/kg was administered intraperitoneally 60 min before test; 9/9; type: functional, organism-based
Mus musculus = test: Inhibitory dose against (+/-)DOI induced (2.5 mg/kg, ip) head twitch response in mice; type: functional; settings: read-out: ID50 (the source's name)
Rattus norvegicus [8] = test: Percent activity for blocking of discriminative property stimulated by (+/-) DOI in rats at 5 mg/kg(+/-DOI 0.35 mg/kg administered to animals pretreated with compound); type: functional
Rattus norvegicus [9] = test: Number of responding rats/number of rats to receive the compound at a dose of 10 mg/kg, +/-DOI 0.35 mg/kg was administered intraperitoneally 60 min before test; 8/8; type: functional, organism-based
Rattus norvegicus [10] = test: Percent activity for blocking of discriminative property stimulated by (+/-) DOI in rats at 0.15 mg/kg(+/-DOI 0.35 mg/kg administered to animals pretreated with compound); type: functional
Rattus norvegicus [11] = test: Percent activity for blocking of discriminative property stimulated by (+/-) DOI in rats at 0.35 mg/kg(+/-DOI 0.35 mg/kg administered to animals pretreated with compound); type: functional
Rattus norvegicus [12] = test: Percent activity for blocking of discriminative property stimulated by (+/-) DOI in rats at 0.25 mg/kg(+/-DOI 0.35 mg/kg administered to animals pretreated with compound); type: functional
Rattus norvegicus [13] = test: Blocking of discriminative property stimulated by DOI in rats at 0.25 mg/kg dose, activity expressed as response/min(+/-DOI 0.35 mg/kg administered to animals pretreated with compound); type: functional
Rattus norvegicus [14] = test: Blocking of discriminative property stimulated by DOI in rats at 0.15 mg/kg dose, activity expressed as response/min(+/-DOI 0.35 mg/kg administered to animals pretreated with compound); type: functional
Rattus norvegicus [15] = test: Blocking of discriminative property stimulated by DOI in rats at 0.35 mg/kg dose, activity expressed as response/min(+/-DOI 0.35 mg/kg administered to animals pretreated with compound); type: functional
Rattus norvegicus [16] = test: Number of responding rats/number of rats to receive the compound at a dose of 10 mg/kg, +/-DOI 0.35 mg/kg was administered intraperitoneally 60 min before test; 7/7; type: functional, organism-based
Rattus norvegicus [17] = test: Percent activity for blocking of discriminative property stimulated by (+/-) DOI in rats at 15 mg/kg(+/-DOI 0.35 mg/kg administered to animals pretreated with compound); type: functional
Rattus norvegicus [18] = test: Number of responding rats/number of rats to receive the compound at a dose of 15mg/kg, +/-DOI 0.35 mg/kg was administered intraperitoneally 60 min before test; 7/7; type: functional, organism-based; set-up: dose 0.35 mg/kg
Rattus norvegicus [19] = test: Blocking of discriminative property stimulated by DOI in rats at 15 mg/kg dose, activity expressed as response/min(+/-DOI 0.35 mg/kg administered to animals pretreated with compound); type: functional
Rattus norvegicus [20] = test: Number of responding rats/number of rats to receive the compound at a dose of 20 mg/kg, +/-DOI 0.35 mg/kg was administered intraperitoneally 60 min before test; 6/6; type: functional, organism-based
Rattus norvegicus [21] = test: Percent activity for blocking of discriminative property stimulated by (+/-) DOI in rats at 20 mg/kg(+/-DOI 0.35 mg/kg administered to animals pretreated with compound); type: functional
Rattus norvegicus [22] = test: Blocking of discriminative property stimulated by DOI in rats at 20 mg/kg dose, activity expressed as response/min(+/-DOI 0.35 mg/kg administered to animals pretreated with compound); type: functional
Rattus norvegicus [23] = test: Percent activity for blocking of discriminative property stimulated by (+/-) DOI in rats at 1 mg/kg(+/-DOI 0.35 mg/kg administered to animals pretreated with compound); type: functional
Rattus norvegicus [24] = test: Number of responding rats/number of rats to receive the compound at a dose of 1 mg/kg, +/-DOI 0.35 mg/kg was administered intraperitoneally 60 min before test; 9/9; type: functional, organism-based
Rattus norvegicus [25] = test: Blocking of discriminative property stimulated by DOI in rats at 1 mg/kg dose, activity expressed as response/min(+/-DOI 0.35 mg/kg administered to animals pretreated with compound); type: functional

Sequence of 5-hydroxytryptamine receptor 2A (P14842 whole entry): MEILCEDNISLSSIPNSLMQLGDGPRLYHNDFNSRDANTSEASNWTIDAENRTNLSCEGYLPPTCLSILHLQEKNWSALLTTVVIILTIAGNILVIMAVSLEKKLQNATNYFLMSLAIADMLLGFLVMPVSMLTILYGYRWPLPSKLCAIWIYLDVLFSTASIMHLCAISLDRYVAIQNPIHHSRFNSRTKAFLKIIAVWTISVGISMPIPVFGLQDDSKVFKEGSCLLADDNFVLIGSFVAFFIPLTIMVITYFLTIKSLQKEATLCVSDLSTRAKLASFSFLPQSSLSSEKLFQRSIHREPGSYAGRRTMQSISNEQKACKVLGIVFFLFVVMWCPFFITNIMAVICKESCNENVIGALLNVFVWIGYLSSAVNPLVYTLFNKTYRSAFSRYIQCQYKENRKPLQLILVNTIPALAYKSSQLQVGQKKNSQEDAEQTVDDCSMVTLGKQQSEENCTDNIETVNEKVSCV

Row | SMILES | Ki [1] | Ki [2] | Response (Rattus norvegicus [3]) | Activity (Rattus norvegicus [5]) | ED50 (Mus musculus) | other results
1 | CN1CCN(c2nc(-c3cccs3)cc(-c3cccs3)n2)CC1 | 8 nM | 972 nM | – | – | – | –
2 | CN1CCN(c2nc(-c3ccoc3)cc(-c3ccoc3)n2)CC1 | 8 nM | 621 nM | 72.5 min⁻¹ | 2.8% | 2.4 mg/kg | Response (Rattus norvegicus [4]): 84.3 min⁻¹; No. of animals (Rattus norvegicus [6]): Active; No. of animals (Rattus norvegicus [7]): Active; Activity (Rattus norvegicus [8]): 31.1%
3 | CN1CCN(c2nc(-c3ccoc3)cc(-c3ccco3)n2)CC1 | 13 nM | 415 nM | 85.1 min⁻¹ | 4% | 2.7 mg/kg | No. of animals (Rattus norvegicus [9]): Active
4 | COc1cc(CC(C)N)c(OC)cc1I (racemic) | – | – | – | – | – | Activity (Rattus norvegicus [10]): 37.5%; Activity (Rattus norvegicus [11]): 100%; Activity (Rattus norvegicus [12]): 63.1%; Response (Rattus norvegicus [13]): 79.5 min⁻¹; Response (Rattus norvegicus [14]): 81.3 min⁻¹; Response (Rattus norvegicus [15]): 74.7 min⁻¹
5 | CN1CCN(c2nccc(-c3ccco3)n2)CC1 | 745 nM | 810 nM | – | – | – | –
6 | CN1CCN(c2nc(-c3ccccc3)cc(-c3ccoc3)n2)CC1 | 9 nM | 1340 nM | 86.6 min⁻¹ | 7.2% | 3.9 mg/kg | No. of animals (Rattus norvegicus [16]): Active
7 | CN1CCN(c2nccc(-c3cccs3)n2)CC1 | 208 nM | 484 nM | – | – | – | –
8 | CN1CCN(c2nc(-c3ccoc3)cc(-c3cccs3)n2)CC1 | 10 nM | 2240 nM | 60.3 min⁻¹ | 47.3% | 4.2 mg/kg | Activity (Rattus norvegicus [17]): 11.2%; No. of animals (Rattus norvegicus [18]): Active; No. of animals (Rattus norvegicus [9]): Active; Response (Rattus norvegicus [19]): 66.2 min⁻¹
9 | CN1CCN(c2nccc(-c3ccoc3)n2)CC1 | 10 nM | 700 nM | – | – | 9.7 mg/kg | No. of animals (Rattus norvegicus [20]): Active; Activity (Rattus norvegicus [21]): 6.6%; Response (Rattus norvegicus [22]): 84.7 min⁻¹
10 | CN1CCC(=C2c3ccccc3C=Cc3ccccc32)CC1 [CYPROHEPTADINE] | – | – | – | – | 0.4 mg/kg | Activity (Rattus norvegicus [23]): 7.1%; No. of animals (Rattus norvegicus [24]): Active; Response (Rattus norvegicus [25]): 85.8 min⁻¹
11 | CN1CCN(c2nccc(-c3ccccc3)n2)CC1 | 2100 nM | 613 nM | – | – | – | –
12 | Cc1cc(-c2ccoc2)nc(N2CCN(C)CC2)n1 | 50 nM | 265 nM | – | – | – | –
